Experimental data taken from patent publication US12077503B2, “Substituted cyclic amides and their use as herbicides” (FMC CORPORATION, priority 2015, dated 2024).

Key:
Format in all cases: in vivo
[1] = system: pigweed (Amaranthus retroflexus); experiment: Test A preemergence; details: Amaranthus retroflexus, pre-emergence, 240 h
Kochia (Kochia scoparia) [2] = experiment: Test A preemergence; details: Bassia scoparia, pre-emergence, 240 h
Procedure, shortened: (§1)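 Visual injury, scored on a 0–100 scale relative to untreated controls, was recorded about 10 d after application. Treatments were a preemergence soil spray over planted seeds or a postemergence spray on plants at the one- to two-leaf stage, 2 to 10 cm tall, all in loam soil–sand blend in the greenhouse.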

[3] = system: giant foxtail (Setaria faberii); experiment: Test A preemergence; details: Setaria faberi, pre-emergence, 240 h
Procedure, shortened: as §1

[4] = system: ragweed (common ragweed, Ambrosia elatior); experiment: Test A preemergence; details: Ambrosia artemisiifolia, pre-emergence, 240 h
Procedure, shortened: as §1

[5] = system: ryegrass, Italian (Italian ryegrass, Lolium multiflorum); experiment: Test A preemergence; details: Lolium multiflorum, pre-emergence, 240 h
Procedure, shortened: as §1

[6] = system: barnyardgrass (Echinochloa crus-galli); experiment: Test A preemergence; details: Echinochloa crus-galli, pre-emergence, 240 h
Procedure, shortened: as §1

[7] = system: wheat (Triticum aestivum); experiment: Test A postemergence; details: Triticum aestivum, post-emergence, 240 h, Postemergence
Procedure, shortened: as §1

[8] = system: pigweed (Amaranthus retroflexus); experiment: Test A postemergence; details: Amaranthus retroflexus, post-emergence, 240 h, Postemergence
Procedure, shortened: as §1

[9] = system: blackgrass (Alopecurus myosuroides); experiment: Test A postemergence; details: Alopecurus myosuroides, post-emergence, 240 h, Postemergence
Procedure, shortened: as §1

Kochia (Kochia scoparia) [10] = experiment: Test A postemergence; details: Bassia scoparia, post-emergence, 240 h, Postemergence
Procedure, shortened: as §1

[11] = system: Galium (catchweed bedstraw, Galium aparine); experiment: Test A postemergence; details: Galium, post-emergence, 240 h, Postemergence
Procedure, shortened: as §1

[12] = system: giant foxtail (Setaria faberii); experiment: Test A postemergence; details: Setaria faberi, post-emergence, 240 h, Postemergence
Procedure, shortened: as §1

[13] = system: ragweed (common ragweed, Ambrosia elatior); experiment: Test A postemergence; details: Ambrosia artemisiifolia, post-emergence, 240 h, Postemergence
Procedure, shortened: as §1

[14] = system: ryegrass, Italian (Italian ryegrass, Lolium multiflorum); experiment: Test A postemergence; details: Lolium multiflorum, post-emergence, 240 h, Postemergence
Procedure, shortened: as §1

corn (Zea mays) = experiment: Test A postemergence; details: Zea mays, post-emergence, 240 h, Postemergence
Procedure, shortened: as §1

[15] = system: barnyardgrass (Echinochloa crus-galli); experiment: Test A postemergence; details: Echinochloa crus-galli, post-emergence, 240 h, Postemergence
Procedure, shortened: as §1

## Cc1cc(F)cc([C@H]2CNC(=O)[C@@H]2C(=O)Nc2cccc(F)c2F)c1 [Compound 1309]
[1]; 500 g ai/ha, preemergence, 0 to 100 scale where 0 is no effect and 100 is complete control, read-out: Pigweed plant response rating
  pest or weed control at 500 g/ha: 20%
[1]; Preemergence, 125 g ai/ha, 0 to 100 scale (0 no effect, 100 complete control), read-out: Plant response rating, Pigweed
  pest or weed control at 125 g/ha: 0%
Kochia (Kochia scoparia) [2]; 500 g ai/ha, preemergence, 0 to 100 scale where 0 is no effect and 100 is complete control, read-out: Kochia plant response rating
  pest or weed control at 500 g/ha: 60%
Kochia (Kochia scoparia) [2]; Preemergence, 125 g ai/ha, 0 to 100 scale (0 no effect, 100 complete control), read-out: Plant response rating, Kochia
  pest or weed control at 125 g/ha: 60%
[3]; 500 g ai/ha, preemergence, 0 to 100 scale where 0 is no effect and 100 is complete control, read-out: Foxtail, Giant plant response rating
  pest or weed control at 500 g/ha: 90%
[3]; Preemergence, 125 g ai/ha, 0 to 100 scale (0 no effect, 100 complete control), read-out: Plant response rating, Foxtail, Giant
  pest or weed control at 125 g/ha: 80%
[4]; 500 g ai/ha, preemergence, 0 to 100 scale where 0 is no effect and 100 is complete control, read-out: Ragweed plant response rating
  pest or weed control at 500 g/ha: 50%
[4]; Preemergence, 125 g ai/ha, 0 to 100 scale (0 no effect, 100 complete control), read-out: Plant response rating, Ragweed
  pest or weed control at 125 g/ha: 40%
[5]; 500 g ai/ha, preemergence, 0 to 100 scale where 0 is no effect and 100 is complete control, read-out: Ryegrass, Italian plant response rating
  pest or weed control at 500 g/ha: 20%
[5]; Preemergence, 125 g ai/ha, 0 to 100 scale (0 no effect, 100 complete control), read-out: Plant response rating, Ryegrass, Italian
  pest or weed control at 125 g/ha: 0%
[6]; 500 g ai/ha, preemergence, 0 to 100 scale where 0 is no effect and 100 is complete control, read-out: Barnyardgrass plant response rating
  pest or weed control at 500 g/ha: 90%
[6]; Preemergence, 125 g ai/ha, 0 to 100 scale (0 no effect, 100 complete control), read-out: Plant response rating, Barnyardgrass
  pest or weed control at 125 g/ha: 90%
[7]; 125 g ai/ha, visual rating about 10 d after treatment, read-out: Wheat plant response rating (0 to 100 scale)
  plant injury at 125 g/ha: 20%
[7]; 500 g ai/ha, visual injury, 0 to 100 scale (0 no effect, 100 complete control), approx. 10 d, read-out: Plant response rating, Wheat
  plant injury at 500 g/ha: 20%
[8]; 125 g ai/ha, visual rating about 10 d after treatment, read-out: Pigweed plant response rating (0 to 100 scale)
  pest or weed control at 125 g/ha: 0%
[8]; 500 g ai/ha, visual injury, 0 to 100 scale (0 no effect, 100 complete control), approx. 10 d, read-out: Plant response rating, Pigweed
  pest or weed control at 500 g/ha: 0%
[9]; 125 g ai/ha, visual rating about 10 d after treatment, read-out: Blackgrass plant response rating (0 to 100 scale)
  pest or weed control at 125 g/ha: 0%
[9]; 500 g ai/ha, visual injury, 0 to 100 scale (0 no effect, 100 complete control), approx. 10 d, read-out: Plant response rating, Blackgrass
  pest or weed control at 500 g/ha: 60%
Kochia (Kochia scoparia) [10]; 125 g ai/ha, visual rating about 10 d after treatment, read-out: Kochia plant response rating (0 to 100 scale)
  pest or weed control at 125 g/ha: 0%
Kochia (Kochia scoparia) [10]; 500 g ai/ha, visual injury, 0 to 100 scale (0 no effect, 100 complete control), approx. 10 d, read-out: Plant response rating, Kochia
  pest or weed control at 500 g/ha: 50%
[11]; 125 g ai/ha, visual rating about 10 d after treatment, read-out: Galium plant response rating (0 to 100 scale)
  pest or weed control at 125 g/ha: 30%
[11]; 500 g ai/ha, visual injury, 0 to 100 scale (0 no effect, 100 complete control), approx. 10 d, read-out: Plant response rating, Galium
  pest or weed control at 500 g/ha: 50%
[12]; 125 g ai/ha, visual rating about 10 d after treatment, read-out: Foxtail, Giant plant response rating (0 to 100 scale)
  pest or weed control at 125 g/ha: 30%
[12]; 500 g ai/ha, visual injury, 0 to 100 scale (0 no effect, 100 complete control), approx. 10 d, read-out: Plant response rating, Foxtail, Giant
  pest or weed control at 500 g/ha: 70%
[13]; 125 g ai/ha, visual rating about 10 d after treatment, read-out: Ragweed plant response rating (0 to 100 scale)
  pest or weed control at 125 g/ha: 0%
[13]; 500 g ai/ha, visual injury, 0 to 100 scale (0 no effect, 100 complete control), approx. 10 d, read-out: Plant response rating, Ragweed
  pest or weed control at 500 g/ha: 30%
[14]; 125 g ai/ha, visual rating about 10 d after treatment, read-out: Ryegrass, Italian plant response rating (0 to 100 scale)
  pest or weed control at 125 g/ha: 0%
[14]; 500 g ai/ha, visual injury, 0 to 100 scale (0 no effect, 100 complete control), approx. 10 d, read-out: Plant response rating, Ryegrass, Italian
  pest or weed control at 500 g/ha: 20%
Corn (Zea mays); 125 g ai/ha, visual rating about 10 d after treatment, read-out: Corn plant response rating (0 to 100 scale)
  plant injury at 125 g/ha: 0%
Corn (Zea mays); 500 g ai/ha, visual injury, 0 to 100 scale (0 no effect, 100 complete control), approx. 10 d
  Corn plant response rating (crop injury, 0 = no effect, 100 = complete kill) at 500 g/ha: 20%
[15]; 125 g ai/ha, visual rating about 10 d after treatment, read-out: Barnyardgrass plant response rating (0 to 100 scale, 0 no effect, 100 complete control)
  pest or weed control at 125 g/ha: 90%
[15]; 500 g ai/ha, visual injury, 0 to 100 scale (0 no effect, 100 complete control), approx. 10 d, read-out: Plant response rating, Barnyardgrass
  pest or weed control at 500 g/ha: 90%
